Test results as given in patent US20220096516A1, “OLIGONUCLEOTIDE MOLECULE AND APPLICATION THEREOF IN TUMOR THERAPY” (Ractigen Therapeutics, priority 2019, published 2022).
d = 2'-deoxy (DNA); r = 2'-OH (RNA)

Test system: LHPP gene
Assay: High-throughput screening of saRNAs targeting LHPP promoter: LHPP mRNA by one-step RT-qPCR in Huh7 cells
Assay type: cell-based, human
Conditions: 10 nM saRNA, 72 hours, relative to control (Mock)
In short: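 Huh7 cells were transfected with 10 nM saRNA using RNAiMax and lysed 72 h later. LHPP mRNA was quantified by one-step RT-qPCR in triplicate wells. Expression was normalised to HPRT1 and TBP and given as fold change versus mock-transfected cells.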

Substance | Fold of changes in relative LHPP mRNA expression level [fold] | Fold of changes in relative LHPP mRNA expression level (log2)
RAG7-702: saRNA duplex; sense CUCAGCCCAGGUCCUAUGCTT (SEQ ID NO: 140), antisense GCAUAGGACCUGGGCUGAGTT (SEQ ID NO: 304) (sugars from the 5' end r19 d2, backbone not given here) | 1.14 | 0.19
RAG7-704: saRNA duplex; sense UUCUCAGCCCAGGUCCUAUTT (SEQ ID NO: 112), antisense AUAGGACCUGGGCUGAGAATT (SEQ ID NO: 276) (sugars from the 5' end r19 d2, backbone not given here) | 1.19 | 0.26
RAG7-706: saRNA duplex; sense UCUUCUCAGCCCAGGUCCUTT (SEQ ID NO: 15), antisense AGGACCUGGGCUGAGAAGATT (SEQ ID NO: 179) (sugars from the 5' end r19 d2, backbone not given here) | 1.63 | 0.70
RAG7-707: saRNA duplex; sense UUCUUCUCAGCCCAGGUCCTT (SEQ ID NO: 8), antisense GGACCUGGGCUGAGAAGAATT (SEQ ID NO: 172) (sugars from the 5' end r19 d2, backbone not given here) | 1.72 | 0.78
RAG7-708: saRNA duplex; sense UUUCUUCUCAGCCCAGGUCTT (SEQ ID NO: 106), antisense GACCUGGGCUGAGAAGAAATT (SEQ ID NO: 270) (sugars from the 5' end r19 d2, backbone not given here) | 1.21 | 0.27
RAG7-709: saRNA duplex; sense UUUUCUUCUCAGCCCAGGUTT (SEQ ID NO: 126), antisense ACCUGGGCUGAGAAGAAAATT (SEQ ID NO: 290) (sugars from the 5' end r19 d2, backbone not given here) | 1.17 | 0.22
RAG7-710: saRNA duplex; sense GUUUUCUUCUCAGCCCAGGTT (SEQ ID NO: 122), antisense CCUGGGCUGAGAAGAAAACTT (SEQ ID NO: 286) (sugars from the 5' end r19 d2, backbone not given here) | 1.18 | 0.24
RAG7-715: saRNA duplex; sense GUCCCGUUUUCUUCUCAGCTT (SEQ ID NO: 148), antisense GCUGAGAAGAAAACGGGACTT (SEQ ID NO: 312) (sugars from the 5' end r19 d2, backbone not given here) | 1.13 | 0.18
RAG7-720: saRNA duplex; sense UGAUAGUCCCGUUUUCUUCTT (SEQ ID NO: 62), antisense GAAGAAAACGGGACUAUCATT (SEQ ID NO: 226) (sugars from the 5' end r19 d2, backbone not given here) | 1.33 | 0.41
RAG7-721: saRNA duplex; sense GUGAUAGUCCCGUUUUCUUTT (SEQ ID NO: 133), antisense AAGAAAACGGGACUAUCACTT (SEQ ID NO: 297) (sugars from the 5' end r19 d2, backbone not given here) | 1.16 | 0.21
RAG7-722: saRNA duplex; sense UGUGAUAGUCCCGUUUUCUTT (SEQ ID NO: 135), antisense AGAAAACGGGACUAUCACATT (SEQ ID NO: 299) (sugars from the 5' end r19 d2, backbone not given here) | 1.15 | 0.21
RAG7-726: saRNA duplex; sense GCAUUGUGAUAGUCCCGUUTT (SEQ ID NO: 127), antisense AACGGGACUAUCACAAUGCTT (SEQ ID NO: 291) (sugars from the 5' end r19 d2, backbone not given here) | 1.17 | 0.22
RAG7-735: saRNA duplex; sense GGGUUUAACGCAUUGUGAUTT (SEQ ID NO: 114), antisense AUCACAAUGCGUUAAACCCTT (SEQ ID NO: 278) (sugars from the 5' end r19 d2, backbone not given here) | 1.19 | 0.25
RAG7-736: saRNA duplex; sense UGGGUUUAACGCAUUGUGATT (SEQ ID NO: 131), antisense UCACAAUGCGUUAAACCCATT (SEQ ID NO: 295) (sugars from the 5' end r19 d2, backbone not given here) | 1.16 | 0.22
RAG7-738: saRNA duplex; sense CCUGGGUUUAACGCAUUGUTT (SEQ ID NO: 159), antisense ACAAUGCGUUAAACCCAGGTT (SEQ ID NO: 323) (sugars from the 5' end r19 d2, backbone not given here) | 1.11 | 0.15
RAG7-741: saRNA duplex; sense CCUCCUGGGUUUAACGCAUTT (SEQ ID NO: 95), antisense AUGCGUUAAACCCAGGAGGTT (SEQ ID NO: 259) (sugars from the 5' end r19 d2, backbone not given here) | 1.23 | 0.30
RAG7-745: saRNA duplex; sense AAAACCUCCUGGGUUUAACTT (SEQ ID NO: 154), antisense GUUAAACCCAGGAGGUUUUTT (SEQ ID NO: 318) (sugars from the 5' end r19 d2, backbone not given here) | 1.11 | 0.15
RAG7-776: saRNA duplex; sense UAGCAUCGAGUGGUAUUUUTT (SEQ ID NO: 56), antisense AAAAUACCACUCGAUGCUATT (SEQ ID NO: 220) (sugars from the 5' end r19 d2, backbone not given here) | 1.35 | 0.44
RAG7-778: saRNA duplex; sense UGUAGCAUCGAGUGGUAUUTT (SEQ ID NO: 70), antisense AAUACCACUCGAUGCUACATT (SEQ ID NO: 234) (sugars from the 5' end r19 d2, backbone not given here) | 1.29 | 0.37
RAG7-780: saRNA duplex; sense AAUGUAGCAUCGAGUGGUATT (SEQ ID NO: 142), antisense UACCACUCGAUGCUACAUUTT (SEQ ID NO: 306) (sugars from the 5' end r19 d2, backbone not given here) | 1.14 | 0.19
RAG7-821: saRNA duplex; sense ACUCCUCCCUUUUAAUAUCTT (SEQ ID NO: 89), antisense GAUAUUAAAAGGGAGGAGUTT (SEQ ID NO: 253) (sugars from the 5' end r19 d2, backbone not given here) | 1.25 | 0.32
RAG7-826: saRNA duplex; sense AGGAAACUCCUCCCUUUUATT (SEQ ID NO: 157), antisense UAAAAGGGAGGAGUUUCCUTT (SEQ ID NO: 321) (sugars from the 5' end r19 d2, backbone not given here) | 1.11 | 0.15
RAG7-828: saRNA duplex; sense UGAGGAAACUCCUCCCUUUTT (SEQ ID NO: 108), antisense AAAGGGAGGAGUUUCCUCATT (SEQ ID NO: 272) (sugars from the 5' end r19 d2, backbone not given here) | 1.20 | 0.26
RAG7-829: saRNA duplex; sense UUGAGGAAACUCCUCCCUUTT (SEQ ID NO: 29), antisense AAGGGAGGAGUUUCCUCAATT (SEQ ID NO: 193) (sugars from the 5' end r19 d2, backbone not given here) | 1.50 | 0.59
RAG7-830: saRNA duplex; sense AUUGAGGAAACUCCUCCCUTT (SEQ ID NO: 36), antisense AGGGAGGAGUUUCCUCAAUTT (SEQ ID NO: 200) (sugars from the 5' end r19 d2, backbone not given here) | 1.45 | 0.54
